Laboratory results reported in patent US7306804B2 (priority 1998, dated 2007).
Read-outs that look alike come from different tables or passages of the source.

Columns and labels:
[1] = tested on: anti-peptide antibodies in serum; assay type: binding, chimpanzee; set-up: key: +, Positive (Titer > 1:100); −, Negative (Titer < 1:100)
[2] = tested on: PBMCs from normal and HIV-positive individuals; assay type: cell-based, human; conditions: for number of HIV+ individuals with positive proliferative responses: 17 HIV+ individuals tested
[3] = tested on: anti-peptide antibodies in serum; assay type: binding, human; set-up: key to Anti-peptide antibody response: +, Positive (titer above control); −, Negative (titer below control)
[4] = tested on: PBMCs from control and HIV-1 infected chimpanzees; assay type: cell-based, chimpanzee

FLGFLGAAGSTMGAASLTLTVQARQ [Peptide 121]
Anti-peptide antibody response [1]: − | Anti-peptide antibody response ([1]; chimpanzee 40, control normal): − | Anti-peptide antibody response ([1]; chimpanzee 73, control normal): − | number of HIV+ individuals with positive proliferative responses [2]: five | T-cell proliferative response ([2]; HIV-positive patient MSf): − (−, Negative (SI < 2.0)) | T-cell proliferative response ([2]; HIV-positive patient MSm): − (−, Negative (SI < 2.0)) | T-cell proliferative response ([2]; HIV-positive patient eight): − (−, Negative (SI < 2.0)) | T-cell proliferative response ([2]; HIV-positive patient eleven): − (−, Negative (SI < 2.0)) | T-cell proliferative response ([2]; HIV-positive patient fifteen): + (+, Positive (Stimulation Index [SI] > 2.0)) | T-cell proliferative response ([2]; HIV-positive patient five): − (−, Negative (SI < 2.0)) | T-cell proliferative response ([2]; HIV-positive patient four): − (−, Negative (SI < 2.0)) | T-cell proliferative response ([2]; HIV-positive patient fourteen): + (+, Positive (Stimulation Index [SI] > 2.0)) | T-cell proliferative response ([2]; HIV-positive patient nine): − (−, Negative (SI < 2.0)) | T-cell proliferative response ([2]; HIV-positive patient one): − (−, Negative (SI < 2.0)) | T-cell proliferative response ([2]; HIV-positive patient seven): − (−, Negative (SI < 2.0)) | T-cell proliferative response ([2]; HIV-positive patient six): + (+, Positive (Stimulation Index [SI] > 2.0)) | T-cell proliferative response ([2]; HIV-positive patient ten): + (+, Positive (Stimulation Index [SI] > 2.0)) | T-cell proliferative response ([2]; HIV-positive patient thirteen): − (−, Negative (SI < 2.0)) | T-cell proliferative response ([2]; HIV-positive patient three): + (+, Positive (Stimulation Index [SI] > 2.0)) | T-cell proliferative response ([2]; HIV-positive patient twelve): − (−, Negative (SI < 2.0)) | T-cell proliferative response ([2]; HIV-positive patient two): − (−, Negative (SI < 2.0)) | T-cell proliferative response ([2]; Normal-1 (HIV-seronegative)): − (−, Negative (SI < 2.0)) | T-cell proliferative response ([2]; Normal-2 (HIV-seronegative)): − (−, Negative (SI < 2.0)) | number of HIV+ individuals with positive antibody titers (<1:1280) [3]: one | Anti-peptide antibody response ([3]; HIV-positive patient MSf): − | Anti-peptide antibody response ([3]; HIV-positive patient MSm): − | Anti-peptide antibody response ([3]; HIV-positive patient eight): − | Anti-peptide antibody response ([3]; HIV-positive patient eleven): − | Anti-peptide antibody response ([3]; HIV-positive patient fifteen): − | Anti-peptide antibody response ([3]; HIV-positive patient five): − | Anti-peptide antibody response ([3]; HIV-positive patient four): − | Anti-peptide antibody response ([3]; HIV-positive patient fourteen): − | Anti-peptide antibody response ([3]; HIV-positive patient nine): + | Anti-peptide antibody response ([3]; HIV-positive patient one): − | Anti-peptide antibody response ([3]; HIV-positive patient seven): − | Anti-peptide antibody response ([3]; HIV-positive patient six): − | Anti-peptide antibody response ([3]; HIV-positive patient ten): − | Anti-peptide antibody response ([3]; HIV-positive patient thirteen): − | Anti-peptide antibody response ([3]; HIV-positive patient three): − | Anti-peptide antibody response ([3]; HIV-positive patient twelve): − | Anti-peptide antibody response ([3]; HIV-positive patient two): − | Anti-peptide antibody response ([3]; Normal-1 (HIV-seronegative)): − | Anti-peptide antibody response ([3]; Normal-2 (HIV-seronegative)): − | T-cell proliferative response ([4]; chimpanzee 40, control normal): − (−, Negative (SI < 2.0)) | T-cell proliferative response ([4]; chimpanzee 62, HIV-infected): + (+, Positive (Stimulation Index [SI] > 2.0)) | T-cell proliferative response ([4]; chimpanzee 69, HIV-infected): + (+, Positive (Stimulation Index [SI] > 2.0)) | T-cell proliferative response ([4]; chimpanzee 73, control normal): − (−, Negative (SI < 2.0)) | T-cell proliferative response ([4]; chimpanzee 80, HIV-infected): + (+, Positive (Stimulation Index [SI] > 2.0)) | T-cell proliferative response ([4]; chimpanzee 99, HIV-infected): − (−, Negative (SI < 2.0)) | T-cell proliferative response ([4]; chimpanzee 100, HIV-infected): + (+, Positive (Stimulation Index [SI] > 2.0)) | T-cell proliferative response ([4]; chimpanzee 139, HIV-infected): − (−, Negative (SI < 2.0)) | T-cell proliferative response ([4]; chimpanzee 175, HIV-infected): + (+, Positive (Stimulation Index [SI] > 2.0)) | T-cell proliferative response ([4]; chimpanzee 247, HIV-infected): − (−, Negative (SI < 2.0)) | T-cell proliferative response ([4]; chimpanzee 310, HIV-infected): − (−, Negative (SI < 2.0)) | number of HIV-infected chimpanzees with positive proliferative responses (SI>2.0) ([4]; nine HIV-infected chimpanzees tested): five

YLRDQQLLGIWG [Peptide 120]
Anti-peptide antibody response [1]: − | number of HIV+ individuals with positive proliferative responses [2]: five | T-cell proliferative response ([2]; HIV-positive patient MSf): − (−, Negative (SI < 2.0)) | T-cell proliferative response ([2]; HIV-positive patient MSm): − (−, Negative (SI < 2.0)) | T-cell proliferative response ([2]; HIV-positive patient eight): − (−, Negative (SI < 2.0)) | T-cell proliferative response ([2]; HIV-positive patient eleven): + (+, Positive (Stimulation Index [SI] > 2.0)) | T-cell proliferative response ([2]; HIV-positive patient fifteen): + (+, Positive (Stimulation Index [SI] > 2.0)) | T-cell proliferative response ([2]; HIV-positive patient five): − (−, Negative (SI < 2.0)) | T-cell proliferative response ([2]; HIV-positive patient four): − (−, Negative (SI < 2.0)) | T-cell proliferative response ([2]; HIV-positive patient fourteen): − (−, Negative (SI < 2.0)) | T-cell proliferative response ([2]; HIV-positive patient nine): + (+, Positive (Stimulation Index [SI] > 2.0)) | T-cell proliferative response ([2]; HIV-positive patient one): − (−, Negative (SI < 2.0)) | T-cell proliferative response ([2]; HIV-positive patient seven): + (+, Positive (Stimulation Index [SI] > 2.0)) | T-cell proliferative response ([2]; HIV-positive patient six): + (+, Positive (Stimulation Index [SI] > 2.0)) | T-cell proliferative response ([2]; HIV-positive patient ten): − (−, Negative (SI < 2.0)) | T-cell proliferative response ([2]; HIV-positive patient thirteen): − (−, Negative (SI < 2.0)) | T-cell proliferative response ([2]; HIV-positive patient three): − (−, Negative (SI < 2.0)) | T-cell proliferative response ([2]; HIV-positive patient twelve): − (−, Negative (SI < 2.0)) | T-cell proliferative response ([2]; HIV-positive patient two): − (−, Negative (SI < 2.0)) | T-cell proliferative response ([2]; Normal-1 (HIV-seronegative)): − (−, Negative (SI < 2.0)) | T-cell proliferative response ([2]; Normal-2 (HIV-seronegative)): − (−, Negative (SI < 2.0)) | Anti-peptide antibody response [3]: − and + | number of HIV+ individuals with positive antibody titers (<1:1280) [3]: two | T-cell proliferative response ([4]; chimpanzee 40, control normal): − (−, Negative (SI < 2.0)) | T-cell proliferative response ([4]; chimpanzee 62, HIV-infected): + (+, Positive (Stimulation Index [SI] > 2.0)) | T-cell proliferative response ([4]; chimpanzee 69, HIV-infected): + (+, Positive (Stimulation Index [SI] > 2.0)) | T-cell proliferative response ([4]; chimpanzee 73, control normal): − (−, Negative (SI < 2.0)) | T-cell proliferative response ([4]; chimpanzee 80, HIV-infected): + (+, Positive (Stimulation Index [SI] > 2.0)) | T-cell proliferative response ([4]; chimpanzee 99, HIV-infected): − (−, Negative (SI < 2.0)) | T-cell proliferative response ([4]; chimpanzee 100, HIV-infected): + (+, Positive (Stimulation Index [SI] > 2.0)) | T-cell proliferative response ([4]; chimpanzee 139, HIV-infected): − (−, Negative (SI < 2.0)) | T-cell proliferative response ([4]; chimpanzee 175, HIV-infected): − (−, Negative (SI < 2.0)) | T-cell proliferative response ([4]; chimpanzee 247, HIV-infected): − (−, Negative (SI < 2.0)) | T-cell proliferative response ([4]; chimpanzee 310, HIV-infected): − (−, Negative (SI < 2.0))

STRTPEDSNSLGT [c-mos peptide, reference compound]
Anti-peptide antibody response [1]: − | Anti-peptide antibody response ([1]; chimpanzee 40, control normal): − | Anti-peptide antibody response ([1]; chimpanzee 73, control normal): − | number of HIV+ individuals with positive proliferative responses [2]: None | number of HIV+ individuals with positive proliferative responses ([2]; listed as control peptide): none | T-cell proliferative response ([2]; HIV-positive patient MSf): − (−, Negative (SI < 2.0)) | T-cell proliferative response ([2]; HIV-positive patient MSm): − (−, Negative (SI < 2.0)) | T-cell proliferative response ([2]; HIV-positive patient eight): − (−, Negative (SI < 2.0)) | T-cell proliferative response ([2]; HIV-positive patient eleven): − (−, Negative (SI < 2.0)) | T-cell proliferative response ([2]; HIV-positive patient fifteen): − (−, Negative (SI < 2.0)) | T-cell proliferative response ([2]; HIV-positive patient five): − (−, Negative (SI < 2.0)) | T-cell proliferative response ([2]; HIV-positive patient four): − (−, Negative (SI < 2.0)) | T-cell proliferative response ([2]; HIV-positive patient fourteen): − (−, Negative (SI < 2.0)) | T-cell proliferative response ([2]; HIV-positive patient nine): − (−, Negative (SI < 2.0)) | T-cell proliferative response ([2]; HIV-positive patient one): − (−, Negative (SI < 2.0)) | T-cell proliferative response ([2]; HIV-positive patient seven): − (−, Negative (SI < 2.0)) | T-cell proliferative response ([2]; HIV-positive patient six): − (−, Negative (SI < 2.0)) | T-cell proliferative response ([2]; HIV-positive patient ten): − (−, Negative (SI < 2.0)) | T-cell proliferative response ([2]; HIV-positive patient thirteen): − (−, Negative (SI < 2.0)) | T-cell proliferative response ([2]; HIV-positive patient three): − (−, Negative (SI < 2.0)) | T-cell proliferative response ([2]; HIV-positive patient twelve): − (−, Negative (SI < 2.0)) | T-cell proliferative response ([2]; HIV-positive patient two): − (−, Negative (SI < 2.0)) | T-cell proliferative response ([2]; Normal-1 (HIV-seronegative)): − (−, Negative (SI < 2.0)) | T-cell proliferative response ([2]; Normal-2 (HIV-seronegative)): − (−, Negative (SI < 2.0)) | Anti-peptide antibody response ([3]; HIV-positive patient MSf): − | Anti-peptide antibody response ([3]; HIV-positive patient MSm): − | Anti-peptide antibody response ([3]; HIV-positive patient eight): − | Anti-peptide antibody response ([3]; HIV-positive patient eleven): − | Anti-peptide antibody response ([3]; HIV-positive patient fifteen): − | Anti-peptide antibody response ([3]; HIV-positive patient five): − | Anti-peptide antibody response ([3]; HIV-positive patient four): − | Anti-peptide antibody response ([3]; HIV-positive patient fourteen): − | Anti-peptide antibody response ([3]; HIV-positive patient nine): − | Anti-peptide antibody response ([3]; HIV-positive patient one): − | Anti-peptide antibody response ([3]; HIV-positive patient seven): − | Anti-peptide antibody response ([3]; HIV-positive patient six): − | Anti-peptide antibody response ([3]; HIV-positive patient ten): − | Anti-peptide antibody response ([3]; HIV-positive patient thirteen): − | Anti-peptide antibody response ([3]; HIV-positive patient three): − | Anti-peptide antibody response ([3]; HIV-positive patient twelve): − | Anti-peptide antibody response ([3]; HIV-positive patient two): − | Anti-peptide antibody response ([3]; Normal-1 (HIV-seronegative)): − | Anti-peptide antibody response ([3]; Normal-2 (HIV-seronegative)): − | T-cell proliferative response ([4]; chimpanzee 40, control normal): − (−, Negative (SI < 2.0)) | T-cell proliferative response ([4]; chimpanzee 62, HIV-infected): − (−, Negative (SI < 2.0)) | T-cell proliferative response ([4]; chimpanzee 69, HIV-infected): − (−, Negative (SI < 2.0)) | T-cell proliferative response ([4]; chimpanzee 73, control normal): − (−, Negative (SI < 2.0)) | T-cell proliferative response ([4]; chimpanzee 80, HIV-infected): − (−, Negative (SI < 2.0)) | T-cell proliferative response ([4]; chimpanzee 99, HIV-infected): − (−, Negative (SI < 2.0)) | T-cell proliferative response ([4]; chimpanzee 100, HIV-infected): − (−, Negative (SI < 2.0)) | T-cell proliferative response ([4]; chimpanzee 139, HIV-infected): − (−, Negative (SI < 2.0)) | SI, background level of proliferation ([4]; chimpanzee 175): 2.7 | T-cell proliferative response ([4]; chimpanzee 175, HIV-infected): + (+, Positive (Stimulation Index [SI] > 2.0)) | T-cell proliferative response ([4]; chimpanzee 247, HIV-infected): − (−, Negative (SI < 2.0)) | T-cell proliferative response ([4]; chimpanzee 310, HIV-infected): − (−, Negative (SI < 2.0))

phytohemagglutinin [PHA, reference compound]
SI values, proliferation ([2]; HIV+ individuals): 20.3-23.3 | cpm values, proliferation ([2]; HIV+ individuals): 108361-127640 cpm | SI values, proliferation ([2]; normal subjects): 131-183 | proliferation ([4]; all nine HIV-infected chimpanzees): high levels of proliferation | cpm values, proliferation ([4]; two control uninfected chimpanzees): 15832-20504 cpm
